Measurements from ChEMBL document CHEMBL1149487, “A structure-guided approach to an orthogonal estrogen-receptor-based gene switch activated by ligands suitable for in vivo studies” (J Med Chem, 2006).
The source made the active and inactive calls. The calls are words filed in the database; no cut-off is given here.

Assays:
Estrogen receptor [1] = target: T1, Estrogen receptor (Homo sapiens, UniProt P03372); assay: Binding affinity to wild type ERalpha
T1 sequence (P03372 whole entry): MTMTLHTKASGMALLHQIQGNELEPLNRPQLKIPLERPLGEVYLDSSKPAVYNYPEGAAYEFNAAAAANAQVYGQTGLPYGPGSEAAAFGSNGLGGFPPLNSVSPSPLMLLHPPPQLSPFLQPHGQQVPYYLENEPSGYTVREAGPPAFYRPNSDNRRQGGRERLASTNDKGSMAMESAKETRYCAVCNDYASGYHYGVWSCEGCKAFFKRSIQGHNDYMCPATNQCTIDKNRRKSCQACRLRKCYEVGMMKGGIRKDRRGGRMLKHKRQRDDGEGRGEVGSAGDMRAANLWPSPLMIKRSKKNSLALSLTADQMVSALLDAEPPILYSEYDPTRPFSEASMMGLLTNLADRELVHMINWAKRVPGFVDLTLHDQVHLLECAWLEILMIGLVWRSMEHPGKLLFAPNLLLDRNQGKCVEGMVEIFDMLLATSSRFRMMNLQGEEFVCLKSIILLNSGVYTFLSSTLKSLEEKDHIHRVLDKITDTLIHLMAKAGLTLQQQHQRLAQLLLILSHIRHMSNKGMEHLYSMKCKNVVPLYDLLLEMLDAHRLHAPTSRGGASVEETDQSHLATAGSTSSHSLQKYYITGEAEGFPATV

Estrogen receptor beta [2] = target: T2, Estrogen receptor beta (Homo sapiens, UniProt Q92731)
T2 sequence (Q92731 whole entry): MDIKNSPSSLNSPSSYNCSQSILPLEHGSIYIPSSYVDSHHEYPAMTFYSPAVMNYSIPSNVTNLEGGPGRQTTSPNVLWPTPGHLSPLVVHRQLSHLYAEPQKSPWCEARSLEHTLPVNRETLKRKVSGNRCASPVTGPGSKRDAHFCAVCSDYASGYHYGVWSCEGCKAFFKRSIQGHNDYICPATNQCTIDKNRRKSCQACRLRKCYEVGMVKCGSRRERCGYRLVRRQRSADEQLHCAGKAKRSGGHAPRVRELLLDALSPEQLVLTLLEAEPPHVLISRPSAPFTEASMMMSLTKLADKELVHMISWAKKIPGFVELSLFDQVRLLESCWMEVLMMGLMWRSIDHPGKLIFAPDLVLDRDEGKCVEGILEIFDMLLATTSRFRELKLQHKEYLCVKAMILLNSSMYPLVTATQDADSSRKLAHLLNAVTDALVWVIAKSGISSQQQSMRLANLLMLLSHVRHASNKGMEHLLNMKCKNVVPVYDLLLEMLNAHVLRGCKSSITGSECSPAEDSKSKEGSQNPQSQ

Estrogen receptor [3] = target: T1, Estrogen receptor
Description: Binding affinity to human ER alpha

[4] = Clearance in rat at 3 mg/kg, iv; type: ADME, organism-based; design: dose 3 mg/kg, route intravenous; conditions: in vivo
[5] = Terminal half life in rat at 3 mg/kg, iv; type: ADME, organism-based; design: dose 3 mg/kg, route intravenous; conditions: in vivo, read-out: beta t1/2 (converted)
Estrogen receptor [6] = target: Estrogen receptor (Homo sapiens, UniProt P03372, G521R/L384M/M421G)
Estrogen receptor (Homo sapiens, UniProt P03372, G521R/L384M/M421G), sequence (P03372 whole entry L384M/M421G/G521R): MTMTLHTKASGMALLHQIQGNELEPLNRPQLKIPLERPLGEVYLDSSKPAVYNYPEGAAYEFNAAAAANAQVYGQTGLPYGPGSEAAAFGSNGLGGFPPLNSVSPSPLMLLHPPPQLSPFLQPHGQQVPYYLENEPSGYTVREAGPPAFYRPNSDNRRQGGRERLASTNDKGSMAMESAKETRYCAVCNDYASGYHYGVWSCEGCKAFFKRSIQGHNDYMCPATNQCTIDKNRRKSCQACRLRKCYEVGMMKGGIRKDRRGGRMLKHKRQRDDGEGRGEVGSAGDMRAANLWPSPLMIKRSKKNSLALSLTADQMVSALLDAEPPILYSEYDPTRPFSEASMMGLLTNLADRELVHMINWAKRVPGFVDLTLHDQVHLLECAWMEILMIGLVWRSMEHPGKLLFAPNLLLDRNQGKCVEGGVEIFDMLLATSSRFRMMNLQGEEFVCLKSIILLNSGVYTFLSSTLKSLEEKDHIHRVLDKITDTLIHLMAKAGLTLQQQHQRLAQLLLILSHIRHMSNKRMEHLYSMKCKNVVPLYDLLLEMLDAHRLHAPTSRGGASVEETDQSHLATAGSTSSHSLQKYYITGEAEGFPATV

[7] = target: T3, Estrogen receptor (Homo sapiens) (UniProt P03372); type: functional, cell-based; conditions: HeLa
T3 sequence (whole entry): T1 sequence (P03372 whole entry)

Estrogen receptor beta [8] = target: T2, Estrogen receptor beta; assay: Binding affinity to human ER beta upto 10 uM
[9] = Cmax in BALB/c mouse at 4 mg/kg, ip; type: ADME, organism-based; design: dose 4 mg/kg, route intraperitoneal; conditions: in vivo

Row | Compound | IC50 (Estrogen receptor beta [2]) [nM] | IC50 (Estrogen receptor [3]) [nM] | further results
1 | CC1=C2c3ccc(O)cc3CC2(Cc2ccc(Cl)cc2)CCC1=O (configuration not stated) |  |  | IC50 (Estrogen receptor [1]): 6800 nM
2 | CC1=C2c3ccc4nn[nH]c4c3CC2(Cc2ccc(F)cc2)CCC1=O (configuration not stated) | > 10000 |  | 
3 | CN(C)CCOc1ccc(C2=C3c4ccc(O)cc4CC3(Cc3ccccc3)CCC2=O)cc1 (configuration not stated) | 560 | 1200 | 
4 | O=C1CCC2(Cc3ccccc3)Cc3cc(O)ccc3C2=C1c1ccc(O)cc1 (configuration not stated) | 100 | 220 | clearance [4]: 39 mL/min/kg; half-life [5]: 1.5 h; EC50 (Estrogen receptor [6]): 11 nM
5 | O=C1C=C2c3ccc4[nH]ncc4c3CC2(Cc2ccccc2)CC1 (configuration not stated) | > 10000 | > 10000 | 
6 | CC1=C2c3ccc4[nH]ncc4c3CC2(Cc2cccc(F)c2)CCC1=O (configuration not stated) | 1600 | > 10000 | 
7 | CC1=C2c3ccc(O)cc3CC2(Cc2ccccc2)CCC1=O (configuration not stated) |  | 1500 | 
8 | O=C1CCC2(Cc3ccccc3)Cc3cc(O)ccc3C2=C1c1ccc(OCCN2CCCCC2)cc1 (configuration not stated) | 180 | 380 | clearance [4]: 22 mL/min/kg; half-life [5]: 2 h; EC50 (Estrogen receptor [6]): 14 nM
9 | O=C1CCC2(Cc3ccccc3)Cc3c(ccc4[nH]ncc34)C2=C1c1ccc(OCCN2CCCCC2)cc1 (configuration not stated) | 130 | 620 | EC50 (Estrogen receptor [6]): 300 nM
10 | CC1=C2c3ccc4nn[nH]c4c3CC2(Cc2ccccc2)CCC1=O (configuration not stated) | 5800 | > 10000 | 
11 | CC1=C2c3ccc4[nH]ncc4c3CC2(Cc2ccccc2)CCC1=O (configuration not stated) | 1200 | > 10000 | Activity [7]: inactive
12 | CC1=C2c3ccc4[nH]nnc4c3CC2(Cc2ccc(F)cc2)CCC1=O (configuration not stated) |  |  | Activity (Estrogen receptor beta [8]): inactive
13 | O=C1CCC2(Cc3ccc(Cl)cc3)Cc3cc(O)ccc3C2=C1c1ccc(OCCN2CCCCC2)cc1 (configuration not stated) | 2200 | 1100 | Cmax [9]: 500 nM; EC50 (Estrogen receptor [6]): 41 nM
14 | O=C1CCC2(Cc3ccccc3)Cc3cc(O)ccc3C2=C1c1ccc(OCCN2CCOCC2)cc1 (configuration not stated) | 230 | 710 | 
15 | CC1=C2c3ccc4[nH]ncc4c3CC2(Cc2ccc(F)cc2)CCC1=O (configuration not stated) | > 1000 |  | 
16 | CC1=C2c3ccc4[nH]ncc4c3CC2(Cc2ccccc2F)CCC1=O (configuration not stated) | 560 | 3400 | 
